This passage reports Ki results from US20060211710A1, “Substituted aryl 1,4-pyrazine derivatives” (Pfizer Inc, priority 2005, published 2006).

This assay has as its target T1, CRF1 receptor (Rattus norvegicus, UniProt P35353).
T1 construct: from tissue; host or cells: rat frontal cortex membranes
T1 sequence (P35353 24-415): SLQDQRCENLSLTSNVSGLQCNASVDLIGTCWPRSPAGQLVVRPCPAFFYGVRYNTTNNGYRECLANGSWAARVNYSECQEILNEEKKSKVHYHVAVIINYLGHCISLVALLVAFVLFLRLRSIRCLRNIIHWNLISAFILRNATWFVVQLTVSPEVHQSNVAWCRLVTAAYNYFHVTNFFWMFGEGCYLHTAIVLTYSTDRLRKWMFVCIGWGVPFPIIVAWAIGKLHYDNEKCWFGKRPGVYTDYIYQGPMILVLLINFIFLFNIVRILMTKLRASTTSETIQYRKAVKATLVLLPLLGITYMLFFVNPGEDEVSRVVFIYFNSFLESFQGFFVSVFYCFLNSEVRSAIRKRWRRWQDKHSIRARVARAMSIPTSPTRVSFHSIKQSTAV
Kind of assay: CRF1 Receptor Binding Assay (rat brain membranes, 125I-ovine-CRF). To be noted: read-out: Ki, the binding constant to the CRF1 receptor. The method, then:
The following is a description of the isolation of rat brain membranes for use in the standard binding assay as well as a description of the binding assay itself. It is based on a modified protocol described by De Souza (De Souza, 1987).
To prepare brain membranes for binding assays, rat frontal cortex is homogenized in 10 mL of ice cold tissue buffer (50 mM HEPES buffer pH 7.0, containing 10 mM MgCl2, 2 mM EGTA, 1 μg/ml aprotinin, 1 μg/ml leupeptin and 1 μg/ml pepstatin). The homogenate is centrifuged at 48,000×g for 10 min. and the resulting pellet rehomogenized in 10 mL of tissue buffer. Following an additional centrifugation at 48,000×g for 10 min., the pellet is resuspended to a protein concentration of 300 μg/mL.
Binding assays are performed in 96 well plates at a final volume of 300 μL. The assays are initiated by the addition of 150 μL membrane suspension to 150 μL of assay buffer containing ^125I-ovine-CRF (final concentration 150 pM) and various concentrations of inhibitors. […] Filters are assessed for radioactivity in a Packard TopCount. Nonspecific binding is determined in the presence of excess (10 μM) α-helical CRF. […]
IC50 values are calculated using standard methods known in the art, such as with the non-linear curve fitting program RS/1 (BBN Software Products Corp., Cambridge, Mass.).

Usually Ki stands for the equilibrium dissociation constant of an inhibitor or competing ligand from its target. With `CCc1nc(-c2ccc(N(C)C)nc2C)c(CC)nc1N[C@@H]1c2ccccc2C[C@@H]1OC(C)=O` [Example 1, (1R,2S)Acetic acid 1-[5-(6-dimethylamino-2-methyl-pyridin-3-yl)-3,6-diethyl-pyrazin-2-ylamino]-indan-2-yl ester], the Ki was 19 nM. The same measure for `CCO[C@H]1Cc2ccccc2[C@H]1Nc1nc(CC)c(-c2ccc(N(C)C)nc2C)nc1CC` [Example 3, (1R,2S)[5-(6-Dimethylamino-2-methyl-pyridin-3-yl)-3,6-diethyl-pyrazin-2-yl]-(2-ethoxy-indan-1-yl)-amine]: 13 nM.
